Assay results from patent publication US20040241818A1, “Assay” (priority 2000, published 2004).
Like-named read-outs stand apart in the source and are kept apart here.

Target: T1, truncated Itk (Homo sapiens, UniProt Q08881)
T1 construct: fused on or other part: added start methionine
T1 sequence (Q08881 171-615 limits assumed): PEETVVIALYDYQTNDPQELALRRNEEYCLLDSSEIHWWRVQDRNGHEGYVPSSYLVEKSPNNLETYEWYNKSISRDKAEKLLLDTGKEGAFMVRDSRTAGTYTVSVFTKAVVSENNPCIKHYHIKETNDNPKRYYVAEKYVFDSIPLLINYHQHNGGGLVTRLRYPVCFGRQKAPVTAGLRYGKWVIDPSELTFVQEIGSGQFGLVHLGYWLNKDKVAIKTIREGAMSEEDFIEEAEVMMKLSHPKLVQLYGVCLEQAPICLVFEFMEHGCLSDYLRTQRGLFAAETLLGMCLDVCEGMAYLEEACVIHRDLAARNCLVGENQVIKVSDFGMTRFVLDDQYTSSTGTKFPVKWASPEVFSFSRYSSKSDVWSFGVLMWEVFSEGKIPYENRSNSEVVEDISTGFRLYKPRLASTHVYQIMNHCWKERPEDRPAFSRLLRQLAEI
Test: Truncated Itk kinase assay (HTRF)
Format: biochemical
Details: UK:ITK, 0.05 mM ATP, 15 min pre-incubation
Experimental: The 100 000 g supernatant was stored at −85° C. Stored lysates were thawed on ice, ATP and MgCl2 (0.1 mM and 10 mM) were added. Following incubation on ice the kinase was diluted in 40 mM HEPES (pH 7.4). The kinase reaction mixture contained 40 mM HEPES (pH 7.4). 10 mM MgCl2, 0.05 mM ATP, 0.0005 mM peptide (Biotin-[…]). The reaction was stopped by the addition of EDTA (25 mM). […] An increase in the level of fluorescence indicates an increase in kinase activity.
Compound Testing in Kinase Assay
Substrates (ATP, src-peptide) added
Reaction stopped with EDTA
HTRF reagents (APC, Eu labelled antibody (antiPY antibody)) added
Read signal on plate reader

[1] = PIC50 is -log10 IC50 in molar, read-out: Average PIC50 (converted)

| Compound | IC50 (read-out: Average IC50) [nM] | IC50 [1] [nM] |
| --- | --- | --- |
| CNc1ccc(-c2cc(=O)c3c(O)cc(O)cc3o2)cc1 | 813 | 813 |
| O=c1c(O)c(-c2cc(O)c(O)c(O)c2)oc2cc(O)cc(O)c12 | 1660 | 1660 |
